Data as given in publication PMC12670317, “Targeted NAT10 Degradation by PROTAC NP1192 Suppresses Hypoxia-Adaptive Glycolysis and Reinvigorates CD8^+ Effector T‑Cell Function for Synergistic Cancer Immunotherapy” (ACS Central Science, 2025).
Where a SMILES comes first, the peptide text is derived from it. The star is where a group is joined. Cbz = O=C(OCc1ccccc1)*

How the values were obtained:
[1] = target: T1, NAT10 (Homo sapiens, UniProt Q9H0A0); test: NAT10 degradation in SiHa cells, Western blot; assay type: cell-based; conditions: SiHa cells; for effect of cotreatment on NP1192-mediated degradation of NAT10: inhibitor 200 nM for 12 h, then NP1192 for 36 h
T1 construct: depletion of total NAT10 protein in SiHa (human) and U14 (murine) CCa cell lines; endogenous in cells; host or cells: SiHa (human cervical cancer cell line)
T1 sequence (Q9H0A0 1-1025): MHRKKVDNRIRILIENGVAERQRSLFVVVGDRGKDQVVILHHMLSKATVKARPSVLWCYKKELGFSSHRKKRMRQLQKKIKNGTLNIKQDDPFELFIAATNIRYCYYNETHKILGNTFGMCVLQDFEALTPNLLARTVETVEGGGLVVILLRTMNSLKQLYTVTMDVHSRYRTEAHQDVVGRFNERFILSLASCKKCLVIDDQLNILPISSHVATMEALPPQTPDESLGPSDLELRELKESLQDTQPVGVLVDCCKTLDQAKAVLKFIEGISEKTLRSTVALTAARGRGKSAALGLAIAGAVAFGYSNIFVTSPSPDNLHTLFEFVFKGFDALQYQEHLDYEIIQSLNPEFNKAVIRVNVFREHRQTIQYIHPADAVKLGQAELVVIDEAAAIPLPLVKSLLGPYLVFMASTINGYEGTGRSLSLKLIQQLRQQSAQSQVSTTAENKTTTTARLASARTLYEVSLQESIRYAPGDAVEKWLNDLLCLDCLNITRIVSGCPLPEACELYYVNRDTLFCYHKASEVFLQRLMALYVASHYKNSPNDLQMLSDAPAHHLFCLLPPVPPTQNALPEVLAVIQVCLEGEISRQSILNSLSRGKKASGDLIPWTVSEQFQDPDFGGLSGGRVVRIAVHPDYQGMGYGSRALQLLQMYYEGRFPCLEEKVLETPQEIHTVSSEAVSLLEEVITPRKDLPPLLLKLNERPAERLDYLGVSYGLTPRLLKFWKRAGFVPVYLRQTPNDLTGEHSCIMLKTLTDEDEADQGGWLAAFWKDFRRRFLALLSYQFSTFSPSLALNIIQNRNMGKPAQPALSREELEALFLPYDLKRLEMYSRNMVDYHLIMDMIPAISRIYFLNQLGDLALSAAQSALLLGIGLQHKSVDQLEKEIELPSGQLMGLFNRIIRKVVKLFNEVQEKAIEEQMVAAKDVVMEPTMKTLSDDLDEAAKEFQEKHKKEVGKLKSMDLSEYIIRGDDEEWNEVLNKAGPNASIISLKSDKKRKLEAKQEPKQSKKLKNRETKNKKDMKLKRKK
Procedure: The human CCa cell line SiHa and the normal epithelial foreskin fibroblast line HFF-1 were purchased from the Cell Bank of the Chinese Academy of Sciences. Additionally, murine cervical carcinoma cell line U14 (RRID:CVCL_9U56) was purchased from Boster Company. HFF-1 and U14 cells were cultured in Dulbecco’s modified Eagle’s medium (DMEM) (Gibco, USA) supplemented with 10% heat-inactivated fetal bovine serum (FBS; Gibco, USA), while SiHa cells were incubated in RPMI 1640 medium (Gibco, USA) in a humid atmosphere with 5% CO2 at 37 °C. For hypoxia exposure, the cells were incubated in a sealed culture tank containing 5% CO2 and 0.1% O2 (MGC, Japan) for 36 h.
RIPA lysis buffer (Beyotime, China) mixed with 1% protease inhibitor (Sigma, US) was added to the cells, and a sample of total protein was obtained and then loaded onto an 8% or 12% polyacrylamide gel. The gel was placed in a buffer solution, and an electric current was applied. The separated proteins were subsequently transferred from the gel onto a PVDF membrane. Next, the membrane was blocked with 5% milk for 1 h to prevent nonspecific antibody binding. The membranes were subsequently incubated with anti-NAT10 (1:1000, Abcam, USA), anti-PD-L1 (1:1000, Proteintech, China), anti-HIF-1α (1:1000, Abmart, China), and anti-β-tubulin (1:1000, Proteintech, China) primary antibodies for 12 h. Afterward, the membrane was sequentially washed with 1× TBST and incubated for 1 h with an antimouse secondary antibody (1:6000, Elabscience, China) or antirabbit secondary antibody (1:6000, Elabscience, China). The target proteins were detected via chemiluminescence with a ChemiDoc MP Imaging System (Bio-Rad, US).

[2] = tested on: Remodelin^Resist SiHa cells; test: IC50 and resistance index in Remodelin-resistant SiHa cells (CCK-8); assay type: cell-based, human
Procedure: We generated Remodelin-resistant (Remodelin^Resist SiHa) and NP1192-resistant (NP1192^Resist SiHa) SiHa CCa cell lines by applying a stepwise dose escalation strategy, as previously described in the literature. To quantitatively assess resistance, we calculated the resistance index for each subline following the established methodologies. Briefly, 3000 cells per well were seeded in 96-well plates and treated with increasing concentrations of Remodelin or NP1192 (0, 10, 50, 100, and 150 μM) for 24 h. Following treatment, 10 μL of CCK-8 reagent was added to each well and incubated for an additional 2 h. Absorbance at 490 nm was measured, and the IC50 values were calculated using GraphPad Prism 9.0. The RI was defined as the ratio of the IC50 in resistant cells to that in parental cells.

[3] = tested on: CD8+ TILs, M2 macrophages, MDSCs and Treg cells in U14 xenograft tumors; conditions: Figure 7A
Procedure: U14 cells (1 × 10^7 cells per mouse, approximately 100–150 μL of cell suspension) were implanted subcutaneously into the lateral lower dorsal surface of each mouse. The tumors were allowed to grow for 7 days, and the mice were then administered one of five treatments (group 1: U14 cells + DMSO; group 2: U14 cells + Remodelin; group 3: U14 cells + anti-PD-L1 antibody; group 4: U14 cells + NP1192; group 5: U14 cells + anti-PD-L1 antibody + NP1192). Each group of mice was assigned according to the principles of randomization and the blinding method. Tumors were measured every 2 days, and tumor volume was calculated via the following equation: volume = (width)^2 × length/2. Remodelin and NP1192 were injected into the peritumoral area every 2 days at a dose of 25 mg/kg, and the in vivo antimouse PD-L1 antibody (low endotoxin) was injected every 3 days at a dose of 2.5 mg/kg.
After the mice were euthanized, the tumor and peritumoral tissues were analyzed with an immunoflow kit (BioLegend, USA). The antibodies used for immunoflow cytometry included antihuman/mouse antibodies specific for CD11b-BV711, F4/80-AF647, CD206-PE, CD86-BV605, CD4-CD4-FITC IL-17-17-CY7/CY7, CD25-PE, FOXP3-AF647, CD4-BV605, CD45-PE/CY7, CD11b-BV711 and LY-6G/LY-6C-BV421 (BioLegend catalog no. 321239, RRID:AB_2860843). All data analyses were performed via GraphPad Prism 9, and the data are presented as the mean ± SEMs.

[4] = tested on: SiHa cells; test: Colony formation assay in SiHa cells; assay type: cell-based, human; conditions: pretreated 20 μM 36 h, 2 weeks
Procedure: NAT10^± SiHa cells and SiHa cells treated with DMSO, Remodelin or NP1192 for 36 h were seeded into the wells of a 6-well microplate at identical densities of 2000 or 3000 cells per well. The cells were then incubated in the incubator for at least 2 weeks to form colonies. After the incubation period, the cells were fixed with formalin and then stained with crystal violet. The colonies were then counted via a microscope. The number and size of the colonies in the experimental groups were compared.

[5] = tested on: SiHa cells; test: SiHa cell viability IC50 (CCK-8); assay type: cell-based, human; conditions: Homo sapiens; parental SiHa cells, 36 h; read-out: IC50, inhibition of SiHa cell viability
Procedure: NAT10^± SiHa cells and SiHa cells treated with DMSO, Remodelin or NP1192 for 36 h were seeded into the wells of a 96-well microplate at identical densities of 2000 or 3000 cells per well. After the cells adhered to the well surface, 110 μL of a 1:10 mixture of CCK-8 reagent (Meilunbio, China) and RPMI 1640 medium was added to each well. The microplate was then incubated for another 2 h in the incubator, and the mixture was replaced with an equal volume of medium. A microplate reader (BioTek, US) was used to measure the absorption at a wavelength of 450 nm.

`CC(C)C[C@@H](C=O)NC(=O)[C@H](CC(C)C)NC(=O)[C@H](CC(C)C)NC(=O)OCc1ccccc1` [MG132, reference compound] (Cbz-Leu-Leu-Leu-aldehyde) was tested. Which “effect of cotreatment on NP1192-mediated degradation of NAT10” value [1] did it give?
Its value is “significantly impeded”.

How did the NAT10 degradation ([1]; at 36 h, time course Figure 1G) turn out when `N#Cc1ccc(-c2csc(N(CCCCC(=O)NCCCNc3cccc4c3C(=O)N(C3CCC(=O)NC3=O)C4=O)N=C3CCCC3)n2)cc1` (stereo not drawn) [NP1149] was run?
Its NAT10 degradation is 20%.

And the NAT10 degradation rate ([1]; panel TP1–32 at the same time and concentration, Figure 1E)?
Its NAT10 degradation rate is 23%.

Which “resistance index (RI = IC50 resistant/parental SiHa)” value ([2]; 497.3/10.67) does the source give for `N#Cc1ccc(-c2csc(NN=C3CCCC3)n2)cc1` [Remodelin, reference compound] here?
The value was 46.60.

What about the IC50 ([2]; Homo sapiens, Remodelin^Resist SiHa cells) of the same molecule?
Its IC50 is 497 µM.

What about the Treg gate ([3]; CD4+CD25+FOXP3+) of the same molecule?
Its Treg gate is 0.84%.

What about the “M2 (M2 macrophages gate)” value ([3]; CD11b+F4/80+CD206+) of the same molecule?
The value was 21.24%.

And the MDSC gate ([3]; CD11b+LY-6G+)?
The MDSC gate was 58.69%.

And the “CD8+ (CD8+ TILs gate)” value ([3]; tumors after treatment)?
Its value is 0.56%.

And the colony formation capacity [4]?
The colony formation capacity was “minimal suppressive effects”.

And the IC50 [5]?
The IC50 was 10.7 µM.

For `CO/C1=C\C(C)=C\[C@@H](C)[C@@H](O)[C@@H](C)C/C(C)=C/C=C/[C@H](OC)[C@@H]([C@@H](C)[C@@H](O)[C@H](C)[C@@]2(O)C[C@@H](O)[C@H](C)[C@@H](C(C)C)O2)OC1=O` [bafilomycin A1, reference compound], which “effect of cotreatment on NP1192-mediated degradation of NAT10” value [1] is on record?
The value was “no discernible effect”.
